Measured values reported in US20090203749A1, “AGENT FOR CONTROL OF DEGRANULATION REACTION AND CYTOKINE PRODUCTION” (RIKEN, priority 2005, published 2009).

Assays:
[1] = system: bone marrow-derived mast cells; experiment: antigen stimulation-dependent chemical mediator (β-hexosaminidase) release (degranulation) from mast cells; format: cell-based; conditions: TPEN 0, 2, 5 and 10 μM; IgE-sensitized mast cells stimulated with DNP-HSA for 30 minutes; FIG. 1
Description: The mast cells used were bone marrow-derived mast cells whose differentiation was induced by culturing bone marrow cells with interleukin-3 for 5 weeks. The obtained bone marrow-derived mast cells (1×10^7 cells) were sensitized with 1 μg/mL IgE antibody (SPE-7 clone; available from SIGMA) for 6 hours. After sensitization, the cells were resuspended in Tyrode's buffer (pH 7.4). The composition of the Tyrode's buffer is as described in Table 1.
The obtained mast cell suspension was stimulated with an antigen (DNP-HSA; dinitrophenyl conjugated Human Serum Albumin; available from SIGMA) at each concentration (shown in FIG. 1) for 30 minutes. To investigate the effect of zinc ions, a zinc ion chelator TPEN (0, 2, 5 and 10 μM) was allowed to coexist with the cells for 2 hours during the sensitization period and for 30 minutes of the stimulation. Chemical mediator β-hexosaminidase released from the mast cells was measured. The activity of β-hexosaminidase was measured with an absorption spectrometer at wavelength of 405 nm by using 4-nitrophenyl N-acetyl-β-D-glucosaminide (available from SIGMA) as a substrate. The extracellular release of entire β-hexosaminidase present in the cell was defined as 100%.

[2] = system: bone marrow-derived mast cells; experiment: cytokine production (IL-6 and TNF-α) of mast cells, ELISA; format: cell-based; conditions: TPEN 0, 2, 5 and 10 μM; DNP-HSA 100 ng/ml for 6 hours; FIG. 3
Description: As mast cells sensitized with IgE antibody, the cells prepared in the same way as described in Example 1 were used. After sensitization, the mast cells were resuspended in Tyrode's buffer. The mast cell suspension was stimulated with an antigen (DNP-HSA) at a concentration of 100 ng/ml for 6 hours. To investigate the effect of zinc ions, a zinc ion chelator TPEN (0, 2, 5 and 10 μM) was allowed to coexist with the cells for 2 hours during sensitization and for 6 hours of the stimulation.
The concentrations of cytokines (IL-6 and TNF-α) in the supernatant were determined using ELISA (BIOSOURCE).

[3] = system: passive cutaneous anaphylaxis; experiment: passive cutaneous anaphylaxis (type I allergy) model, Evans blue dye leakage; format: in vivo; conditions: TPEN intraperitoneally 30 minutes before DNP-BSA challenge; mouse ear; FIG. 4
Description: Mouse (6 week-old female, Balb/c Ajc1, CLEA Japan) was sensitized by subcutaneously administering 0.5 μg of IgE antibody (SPE-7, SIGMA) into the ear in order to induce passive cutaneous anaphylaxis. 30 minutes later, passive cutaneous anaphylaxis was induced by intravenous injection of 250 μg of antigen DNP-BSA (COSMOBIO) and 1.25 mg of Evans blue (SIGMA) into the tail of the mouse. In order to digitalize Evans blue dye leakage, the dye was extracted from the ear of the mouse using formamide. The extracted dye was measured by absorbance at wavelength of 620 nm. The amount of dye in each experiment was calculated from the analytical curve obtained by known amounts of Evans blue.

[4] = system: bone marrow-derived mast cells; experiment: restoration of TPEN effect on β-hexosaminidase release by enforced introduction of zinc ion; format: cell-based; conditions: TPEN 10 μM; 1 μM pyrithione and zinc ions during DNP-HSA stimulation; FIG. 2
Description: As mast cells sensitized with IgE antibody, the cells prepared in the same way as in Example 1 were used. After sensitization, the mast cells were resuspended in Tyrode's buffer. A zinc ion chelator TPEN (10 μM) was allowed to coexist with the cells for 2 hours during the sensitization period and for 30 minutes of the stimulation. To introduce zinc ions into the cells, the cells were treated with 1 μM pyrithione (Molecular probes, p-24193) during the stimulation, and zinc ions were added at each concentration (shown in FIG. 2) to Tyrode's buffer. The activity of β-hexosaminidase was measured in the same way as in Example 1. TPEN-untreated cells were used as a control, and the extracellular release of entire β-hexosaminidase present in the cell was defined as 100%.

## c1ccc(CN(CCN(Cc2ccccn2)Cc2ccccn2)Cc2ccccn2)nc1 [TPEN, N,N,N′,N′-tetrakis(2-pyridylmethyl)ethylenediamine]
[1]
  chemical mediator (β-hexosaminidase) release: concentration-dependent suppressive effect
[2]
  cytokine production (IL-6 and TNF-α in supernatant): dose dependent suppression
[3]
  dye leakage of Evans blue: suppressed dose-dependently
[4]
  suppressive effect on the chemical mediator release after addition of zinc ions: restored by the addition of the zinc ions
